Tests used:
MCF-7-MKP3 cells = test: Anchorage-independent soft agar colony formation, MKP3-overexpressing MCF-7 transfectants; type: cell-based, human
Description: MCF-7 cells were originally obtained from Dr. Benita Katzenellebogen, but have been maintained in the inventors' laboratory for over 10 years (Fuqua et al., 2000). MCF-7 cells were maintained in Minimal Essential Medium (MEM, InVitrogen) supplemented with 5% fetal bovine serum (Summit Biotechnology, Fort Collins, Colo.), 200 U/ml penicillin, and 200 μg/ml streptomycin. Cells were incubated at 37° C. in 5% CO2. To generate MCF-7 cells stably overexpressing MKP3, 5 μg of the plasmid pcDNA3-MKP3-V5 (Furukawa et al., 2003) or empty vector (pcDNA3-His-V5, InVitrogen), were transfected into the cells using Fugene 6 reagent Roche Clinical Laboratories, Indianapolis, Ind.) in 100 mm tissue culture dishes following the manufacturer's protocol. Stable clones overexpressing MKP3 were selected as described (Fuqua et al., 2000), and positive clones were identified using immunoblot analysis with an anti-V5 antibody (1:5000 dilution)
Cells were starved for 2 days in PRF MEM (InVitrogen) supplemented with 5% fetal bovine serum (FBS, Summit Biotechnology, Fort Collins, Colo.), 6 ng/ml insulin, 200 units/ml penicillin, and 200 μg/ml streptomycin. Soft agar assays were performed in sixwell plates. Into each well, 1.5 ml of prewarmed (50° C.) 0.7% SeaPlaque agarose (FMC, Rockland, Me.) was added and dissolved in PRF MEM supplemented with 5% charcoal stripped FBS (Summit, Fort Collins, Colo.) to serve as the bottom layer, and allowed to solidify at 4° C. until to use. 0.5×10^4 cells as a single cell suspension were suspended in prewarmed (37° C.) of the same media, 4 ml of 0.5% SeaPlaque agarose was then added, and this suspension then plated as the top layer by adding it dropwise to the solidified bottom layer plates. Plates were cooled for 2 hours, and then transferred to a 37° C. humidified incubator. Two days after plating, media containing control vehicle, 1 nM estradiol, 100 nM 4-OH-Tam, 100 nM OHT plus 10 nM ICI, or 100 nM OHT plus 20 nM […] was added to the top cell layer, and the appropriate media was replaced every two days. After 14 days, the colonies were fixed, and the colony number of colonies >50 cells from quadruplicate assays were then counted. The data shown is the mean colony number of four plates, and is representative of two independent experiments.
In pancreatic cells, ectopic expression of MKP3 is reported to result in a suppression of cell growth (Fuqua et al., 2003). Thus, the growth characteristics of the MCF-7 stable MKP3 transfectants under different hormonal conditions were investigated using anchorageindependent soft agar assay (FIG. 4B).

MKP3 = molecular target: T1, MKP3 (Homo sapiens, UniProt Q16828); test: Phosphatase assay with pNPP on V5 immunoprecipitates of treated MKP3 cells; type: biochemical; conditions: MKP3 transfectants treated 2 hours; relative to control-treated (intermediate)
T1 construct: expressed in transfected cells
T1 sequence (Q16828 1-381): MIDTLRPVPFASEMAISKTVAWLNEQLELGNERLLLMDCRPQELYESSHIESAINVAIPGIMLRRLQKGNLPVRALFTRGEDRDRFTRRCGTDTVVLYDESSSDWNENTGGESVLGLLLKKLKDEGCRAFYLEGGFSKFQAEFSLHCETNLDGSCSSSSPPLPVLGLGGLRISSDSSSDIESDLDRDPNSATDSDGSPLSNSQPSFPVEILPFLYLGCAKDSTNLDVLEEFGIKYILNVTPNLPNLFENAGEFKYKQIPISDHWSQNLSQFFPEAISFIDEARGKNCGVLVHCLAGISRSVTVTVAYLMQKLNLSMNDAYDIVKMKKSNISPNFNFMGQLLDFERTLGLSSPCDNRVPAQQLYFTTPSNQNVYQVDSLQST
Description: MKP3-overexpressing cells and control vector transfected cells were treated as described above with ethanol, E2, or 4-OH-Tam, and lysed in buffer B containing 20 mM Tris-HCl (pH 7.0), 150 mM NaCl, 1% Triton X-100, 0.25 M sucrose, 1 mM EDTA, 1 mM EGTA, 0.1% β-mercaptoethanol, 1 mM PMSF, and 1 μg/ml leupeptin. The cell lysates were cleared and the protein concentrations were determined as detailed above. 300 μg of cell lysate at 1 μg/μl was immunoprecipitated by the addition of 1 μg anti-V5 antiserum, and 20 μl 50% protein G slurry. […] The reactions were then quenched by the addition of 20 μl 5N NaOH, and pNPP hydrolysis was measured at 405 nm. […] The amount of product p-nitrophenol was determined from the absorbance at 405 nm. […]
The observed changes in pMAPK levels in MKP3 overexpressing cells was further characterized. […] Using the artificial substrate pNPP to measure endogenous phosphatase activity, there was an inverse relationship between measured phosphatase activity and pMAPK levels in the MKP3 transfectants. […] There were no observed changes in the ability of MKP3 to bind to MAPK, as measured by co-immunoprecipitation and immunoblot analysis (FIG. 5H). When the levels of MKP3-bound ERK2 were compared between the different hormonal treatments, no differences were detected (C, E, T, IP:V5 lanes). […]

[1] = system: T47D cells overexpressing MTA2; test: Soft agar growth of MTA2-overexpressing T47D cells; type: cell-based, human; conditions: MTA2.5 and 2.8 clones compared to vector alone transfected cells
Source text: Metastasis associated protein 2 (MTA2), also known as PID, is contained in nucleosome remodeling and histone deacetylation (NuRD) complexes. Overexpression of MTA2 into T47D human breast cancer cells (MTA2.5 and 2.8 clones) increases the growth in soft agar in the absence of estrogen (C).

Row | Compound | estrogen-induced colony formation of MCF-7-MKP3 clones (MCF-7-MKP3 cells; 1 nM estradiol, versus vector control cells) | MKP3 phosphatase activity (pNPP hydrolysis) (MKP3) | response of soft agar growth [1] | increase in number of soft agar colonies formed in the presence of Tam, MKP3-overexpressing transfectants compared to vector control cells (MCF-7-MKP3 cells; 100 nM 4-OH-Tam, two MKP3 clones, P<0.05)
1 | C[C@]12CC[C@@H]3c4ccc(O)cc4CC[C@H]3[C@@H]1CC[C@@H]2O [E2, 17β-Estradiol] | equivalent to those obtained with vector control cells | highest | unresponsive | –
2 | CC/C(=C(\c1ccccc1)c1ccc(OCCN(C)C)cc1)c1ccccc1 [Tam, tamoxifen] | – | lowest | unresponsive | ~20 fold

From US20070059720A9 (priority 2004, published 2007)
